Assay results: ChEMBL document CHEMBL5247610, “Discovery of 5-((4-(pyridin-3-yl)pyrimidin-2-yl)amino)-1H-indole-2-carboxamide derivatives as novel anti-cancer agents targeting Nur77” (Eur J Med Chem, 2022)
pIC50, pKd: −log10 of the molar value. The source made the active and inactive calls. No cut-off for these calls is given here.

What was measured:
HepG2 [1] = assay: Antiproliferative activity against human HepG2 cells assessed as cell viability at 10 uM incubated for 48 hrs by MTT assay; assay type: functional; conditions: read-out: Activity
HeLa [2] = assay: Antiproliferative activity against human HeLa cells assessed as cell viability at 10 uM incubated for 48 hrs by MTT assay; assay type: functional; conditions: read-out: Activity
[3] = Cytotoxicity against human L02 cells assessed as cell viability at 10 uM incubated for 48 hrs by MTT assay; assay type: toxicity, cell-based; conditions: read-out: Activity
[4] = biological target: T1, Nuclear receptor subfamily 4immunitygroup A member 1 (Homo sapiens, UniProt P22736); assay: Binding affinity to Nur77 (unknown origin)
T1 sequence (P22736 whole entry, the tested form may be a part): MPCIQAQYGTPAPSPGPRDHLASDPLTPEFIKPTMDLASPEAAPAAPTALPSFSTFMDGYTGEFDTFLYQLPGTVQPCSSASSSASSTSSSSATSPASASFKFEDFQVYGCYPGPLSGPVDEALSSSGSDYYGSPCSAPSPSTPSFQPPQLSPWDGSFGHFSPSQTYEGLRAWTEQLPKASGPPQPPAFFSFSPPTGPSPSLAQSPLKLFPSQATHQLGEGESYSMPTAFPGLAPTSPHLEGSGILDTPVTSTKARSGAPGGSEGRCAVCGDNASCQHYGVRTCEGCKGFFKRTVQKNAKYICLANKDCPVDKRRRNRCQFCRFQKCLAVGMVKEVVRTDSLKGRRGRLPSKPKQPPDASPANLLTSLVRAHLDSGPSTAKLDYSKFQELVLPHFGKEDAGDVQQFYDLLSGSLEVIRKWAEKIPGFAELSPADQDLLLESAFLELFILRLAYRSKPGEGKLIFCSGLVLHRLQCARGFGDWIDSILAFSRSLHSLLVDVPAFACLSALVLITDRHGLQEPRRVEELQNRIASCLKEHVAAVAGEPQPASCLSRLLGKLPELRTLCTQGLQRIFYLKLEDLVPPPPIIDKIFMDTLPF

[5] = biological target: T1, Nuclear receptor subfamily 4immunitygroup A member 1; assay: Binding affinity to Nur77-LBD (unknown origin)
SMMC-7721 = assay: Antiproliferative activity against human SMMC-7721 cells assessed as reduction in cell viability incubated for 48 hrs by MTT assay; assay type: functional, cell-based; conditions: SMMC-7721, 48 h
[6] = biological target: T1, Nuclear receptor subfamily 4immunitygroup A member 1; assay: Binding affinity to pBind-Nur77-LBD (unknown origin) transfected in HEK293T cells co-transfected with pG5-Luc assessed as inhibition of Nur77 transcriptional activity by measuring inhibition of Nur77-driven luciferase activity at 2 uM incubated for 12 hrs by luciferase reporter gene assay; assay type: cell-based; conditions: filed as modulator
[7] = Selectivity index, ratio of IC50 for human L02 cells to IC50 for human SMMC-7721 cells by MTT assay; assay type: toxicity; conditions: L02 cells versus SMMC-7721 cells, read-out: Ratio IC50
[8] = Cytotoxicity against human L02 cells assessed as reduction in cell viability incubated for 48 hrs by MTT assay; assay type: toxicity, cell-based
HepG2 [9] = assay: Antiproliferative activity against human HepG2 cells assessed as reduction in cell viability incubated for 48 hrs by MTT assay; assay type: functional, cell-based; conditions: HepG2, 48 h
[10] = Toxicity in Zebra fish AB embryo assessed as mortality rate at 0.5 uM incubated for 72 hrs; design: species or system Danio rerio; conditions: zebrafish, read-out: Activity
[11] = Selectivity index, ratio of IC50 for human L02 cells to IC50 for human HeLa cells by MTT assay; assay type: toxicity; conditions: L02 cells versus HeLa cells, read-out: Ratio IC50
MDA-MB-231 = assay: Antiproliferative activity against human MDA-MB-231 cells assessed as reduction in cell viability incubated for 48 hrs by MTT assay; assay type: functional, cell-based; conditions: MDA-MB-231, 48 h
HeLa [12] = assay: Antiproliferative activity against human HeLa cells assessed as reduction in cell viability incubated for 48 hrs by MTT assay; assay type: functional, cell-based
Huh-7 = assay: Antiproliferative activity against human Huh-7 cells assessed as reduction in cell viability incubated for 48 hrs by MTT assay; assay type: functional, cell-based; conditions: Huh-7, 48 h
[13] = Toxicity in Zebra fish AB embryo assessed as mortality rate at 0.5 uM incubated for 24 hrs; design: species or system Danio rerio; conditions: zebrafish, read-out: Activity
A549 = assay: Antiproliferative activity against human A549 cells assessed as reduction in cell viability incubated for 48 hrs by MTT assay; assay type: functional, cell-based; conditions: A549, 48 h
[14] = Selectivity index, ratio of IC50 for human L02 cells to IC50 for human Huh-7 cells by MTT assay; assay type: toxicity; conditions: L02 cells versus Huh-7 cells, read-out: Ratio IC50
[15] = Selectivity index, ratio of IC50 for human L02 cells to IC50 for human MDA-MB-231 cells by MTT assay; assay type: toxicity; conditions: L02 cells versus MDA-MB-231 cells, read-out: Ratio IC50
[16] = Toxicity in Zebra fish AB embryo assessed as mortality rate at 1 uM incubated for 24 hrs; design: species or system Danio rerio; conditions: zebrafish, read-out: Activity
[17] = Selectivity index, ratio of IC50 for human L02 cells to IC50 for human HepG2 cells by MTT assay; assay type: toxicity; conditions: L02 cells versus HepG2 cells, read-out: Ratio IC50
[18] = Selectivity index, ratio of IC50 for human L02 cells to IC50 for human A549 cells by MTT assay; assay type: toxicity; conditions: L02 cells versus A549 cells, read-out: Ratio IC50
[19] = Toxicity in Zebra fish AB embryo assessed as mortality rate at 1 uM incubated for 72 hrs; design: species or system Danio rerio; conditions: zebrafish, read-out: Activity

SMILES | viability at 10 µM (HepG2 [1]) [%] | viability at 10 µM (HeLa [2]) [%] | viability at 48 h, 10 µM [3] [%] | further results
Nc1ccccc1NC(=O)c1cc2cc(Nc3nccc(-c4cccnc4)n3)ccc2[nH]1 | 76.4 | 33.2 | 71.1 | –
Cc1ccc(NC(=O)c2cc3cc(Nc4nccc(-c5cccnc5)n4)ccc3[nH]2)c(N)c1 | 36.2 | 29.5 | 38.3 | –
O=C(NCc1cccc(F)c1)c1cc2cc(Nc3nccc(-c4cccnc4)n3)ccc2[nH]1 | 82.5 | 80 | 71.1 | –
COc1cc(NC(=O)c2cc3cc(Nc4nccc(-c5cccnc5)n4)ccc3[nH]2)cc(OC)c1OC | 83.3 | 44.6 | 43.6 | –
O=C(Nc1ccccc1)c1cc2cc(Nc3nccc(-c4cccnc4)n3)ccc2[nH]1 | 84.4 | 46.4 | 70.9 | –
O=C(c1cc2cc(Nc3nccc(-c4cccnc4)n3)ccc2[nH]1)N1CCOCC1 | 78.2 | 36.8 | 62.3 | –
Cc1ccc(NC(=O)c2cc3cc(Nc4nccc(-c5cccnc5)n4)ccc3[nH]2)c(C)c1 | 59.8 | 38.3 | 48.3 | –
COc1cc(NC(=O)c2cc3cc(Nc4nccc(-c5cccnc5)n4)ccc3[nH]2)cc(OC)c1 | 40.8 | 29.7 | 43.6 | –
Nc1ccc(Cl)cc1NC(=O)c1cc2cc(Nc3nccc(-c4cccnc4)n3)ccc2[nH]1 | 97.7 | 89.5 | 62.3 | –
O=C(Nc1ccc(F)c(F)c1F)c1cc2cc(Nc3nccc(-c4cccnc4)n3)ccc2[nH]1 | 114 | 99.8 | 109 | –
O=C(Nc1cc(Br)ccn1)c1cc2cc(Nc3nccc(-c4cccnc4)n3)ccc2[nH]1 | 85.9 | 115 | 81.1 | –
CCN(CC)CCCNC(=O)c1cc2cc(Nc3nccc(-c4cccnc4)n3)ccc2[nH]1 | 67.8 | 39.4 | 82.6 | –
Cc1ccc(NC(=O)c2cc3cc(Nc4nccc(-c5cccnc5)n4)ccc3[nH]2)cc1C | 69.9 | 43.4 | 55.8 | –
O=C(NC12CC3CC(CC(C3)C1)C2)c1cc2cc(Nc3nccc(-c4cccnc4)n3)ccc2[nH]1 | 83.4 | 124 | 81.3 | –
COc1ccc(NC(=O)c2cc3cc(Nc4nccc(-c5cccnc5)n4)ccc3[nH]2)cc1OC | 109 | 74.4 | 91.9 | –
O=C(N/N=C/c1ccncc1)c1cc2cc(Nc3ccnc4ccccc34)ccc2[nH]1 | – | – | – | pKd [4]: 5.93
CCCCNC(=O)c1cc2cc(Nc3nccc(-c4cccnc4)n3)ccc2[nH]1 | 107 | 104 | 102 | –
COc1ccc(NC(=O)c2cc3cc(Nc4nccc(-c5cccnc5)n4)ccc3[nH]2)c(C)c1 | 82.9 | 54.8 | 69 | –
Cc1ccc(NC(=O)c2cc3cc(Nc4nccc(-c5cccnc5)n4)ccc3[nH]2)cc1Nc1nccc(-c2cccnc2)n1 | 86.5 | 95.9 | 79.6 | –
COc1ccc2ccccc2c1/C=N/NC(=O)c1cc2cc(Nc3cc(C)nc4c(OC)cccc34)ccc2[nH]1 | – | – | – | pKd [5]: 5.65
O=C(NCc1ccccc1)c1cc2cc(Nc3nccc(-c4cccnc4)n3)ccc2[nH]1 | 113 | 82 | 94.8 | –
CC1=C(O)C(=O)C=C2C1=CC=C1[C@@]2(C)CC[C@@]2(C)[C@@H]3C[C@](C)(C(=O)O)CC[C@]3(C)CC[C@]12C [CELASTROL] | 18.7 | 49.2 | 13 | pIC50 (SMMC-7721): 5.22; Activity [6]: Active; selectivity ratio [7]: 0.19; IC50 at 48 h [8]: 1120 nM; pIC50 (HepG2 [9]): 5.43; mortality at 72 h, 0.5 µM [10]: 94%; selectivity ratio [11]: 0.87; pIC50 (MDA-MB-231): 5.97; pIC50 (HeLa [12]): 5.92; pIC50 (Huh-7): 5.35; mortality at 24 h, 0.5 µM [13]: 30%; pIC50 (A549): 5.30; selectivity ratio [14]: 0.25; selectivity ratio [15]: 1.04; mortality at 24 h, 1 µM [16]: 100%; selectivity ratio [17]: 0.3; selectivity ratio [18]: 0.22; mortality at 72 h, 1 µM [19]: 100%
O=C(Nc1cncnc1)c1cc2cc(Nc3nccc(-c4cccnc4)n3)ccc2[nH]1 | 81.6 | 108 | 76.2 | –
O=C(NCCN1CCCCC1)c1cc2cc(Nc3nccc(-c4cccnc4)n3)ccc2[nH]1 | 53.7 | 24.9 | 59.1 | –
COc1cccc(NC(=O)c2cc3cc(Nc4nccc(-c5cccnc5)n4)ccc3[nH]2)c1 | 55.2 | 30.2 | 68.6 | –
Cc1ccccc1NC(=O)c1cc2cc(Nc3nccc(-c4cccnc4)n3)ccc2[nH]1 | 90.4 | 35.4 | 84.1 | –
